Test results as given in patent publication US4794197A, “All-cis-1,3,5-triamino-2,4,6,-cyclohexanetriol derivatives, their use, processes for their preparation and pharmaceutical preparations containing them” (priority 1985, dated 1988).
Where two headings read alike, the source gives them in different places.

Columns and labels:
pK-values (approximate) = assay type: physicochemical
[1] = Response to iron(III): keeping iron(III) in solution by complex formation; assay type: physicochemical
[2] = orientating LD50-toxicity test on white mice after intravenous injection; conditions: mouse, in vivo
Text: (§1) all-cis-1,3,5-Triamino-2,4,6-cyclohexanetriol (10), all-cis-1,3,5-tris-(dimethylamino)-2,4,6-cyclohexane triol hydrochloride (12a), all-cis-1,3,5-tris-(trimethylammonio)-2,4,6-[…] (19c) and all-cis-1,3,5-tris-(succinoylamino)-2,4,6-cyclohexanetriol are found to have the following values in mg/kg of body weight in the orientating LD50 -toxicity test on white mice after intravenous injection: 158, 440, 235 and >1000. The elimination of iron from rats with an excessively high iron level by excretion in the urine and faeces after intravenous administration is shown in the following Table by comparison with the figures obtained with Desferal. The rates of excretion were measured over 72 hours after application.

[3] = system: rats with an excessively high iron level; test: elimination of iron from rats with an excessively high iron level by excretion in urine and faeces after intravenous administration; assay type: in vivo; conditions: over 72 hours, by comparison with Desferal (= 1)
Text: as §1

Solubility = assay type: physicochemical
[4] = Response to β-FeO(OH): dissolution of this rust; conditions: in words
[5] = parenteral; cited from earlier work
[6] = cited from earlier work
[7] = general statement on toxicity
[8] = pK2, second lowest value of the list
[9] = pK3, third lowest value of the list
[10] = pK4, fourth lowest value of the list
[11] = pK5, fifth lowest value of the list
[12] = pK6, sixth lowest value of the list
[13] = white mice, intravenous injection, orientating test, read-out: LD50

O=C(O)CCN[C@H]1[C@@H](O)[C@@H](NCCC(=O)O)[C@@H](O)[C@@H](NCCC(=O)O)[C@H]1O [Example 12]
pKa (pK-values (approximate); pK1, lowest value of the list): ~6.2 | pKa (pK-values (approximate); [8]): ~8.2 | pKa (pK-values (approximate); [9]): ~9.7 | pH range in which a solution containing Fe(III) and ligand is clear ([1]; Fe(III):ligand=1:1, result in words): clear over the entire ranges of pH | solubility of the iron complex ([1]; pH 3 to 6): relatively sparingly soluble | maximum Fe(III) kept in solution per ligand ([1]; pH 7.5): ≤ 2 Fe(III) per ligand

CN(C)[C@H]1[C@@H](O)[C@@H](N(C)C)[C@@H](O)[C@@H](N(C)C)[C@H]1O [Example 12a, all-cis-1,3,5-Tris-(dimethylammonio)-2,4,6-cyclohexanetriol trichloride dihydrate]
LD50 ([2]; iv): 440 mg/kg | elimination of iron by excretion in the faeces [3]: 0.5 | elimination of iron by excretion in the urine [3]: 1

O=C(O)CN[C@H]1[C@@H](O)[C@@H](NCC(=O)O)[C@@H](O)[C@@H](NCC(=O)O)[C@H]1O [Example 13, all-cis-1,3,5-Tris-(ammonioacetic acid)-2,4,6-cyclohexanetriol trichloride]
pKa (pK-values (approximate); [10]): ~5.7 | pKa (pK-values (approximate); [11]): ~7.8 | pKa (pK-values (approximate); [12]): ~8.9 | pKa (pK-values (approximate); three lowest pK-values): < 3 | precipitation of iron hydroxide ([1]; ligand:iron ratio of 1:1, pH higher than about 11): Iron hydroxide precipitates

O=C(O)CCC(=O)N[C@H]1[C@@H](O)[C@@H](NC(=O)CCC(=O)O)[C@@H](O)[C@@H](NC(=O)CCC(=O)O)[C@H]1O [Example 16, all-cis-1,3,5a-tris-(succinoylamino)-2,4,6-cyclohexanetriol]
Solubility (Solubility; cyclohexane): sparingly | Solubility (Solubility; water): Readily | Solubility (Solubility; water/EtOH): Readily | Solubility (Solubility; water/MeOH): Readily | LD50 [2, 13]: > 1000 mg/kg

N#CCCN[C@H]1[C@@H](O)[C@@H](NCCC#N)[C@@H](O)[C@@H](NCCC#N)[C@H]1O [all-cis-1,3,5-tris-(2'-aminopropionitrile)-2,4,6-cyclohexanetriol]
pKa (pK-values (approximate); pK1, lowest value of the list): ~3 | pKa (pK-values (approximate); [8]): ~4.5 | pKa (pK-values (approximate); [9]): ~6.3

CCCCN(CC(=O)O)[C@H]1[C@@H](O)[C@@H](N(CCCC)CC(=O)O)[C@@H](O)[C@@H](N(CCCC)CC(=O)O)[C@H]1O [Example 15, all-cis-1,3,5-(N-butylammonioacetic acid)-2,4,6-cyclohexanetriol trichloride]
Response to β-FeO(OH) [4]: Identical to Examples 13 and 14

CC(=O)N(O)CCCCCNC(=O)CCC(=O)N(O)CCCCCNC(=O)CCC(=O)N(O)CCCCCN [Desferal, 30-amino-3,14,25-trihydroxy-3,9,14,20,25-pentaaza-2,10,13,21,24-triacontane-pentanone-methane sulphonate, reference compound]
elimination of iron by excretion in the faeces [3]: 1 | elimination of iron by excretion in the urine [3]: 1 | half life in the body [5]: very short | serious side effects after prolonged administration [6]: visual disturbances

N[C@H]1[C@@H](O)[C@@H](N)[C@@H](O)[C@@H](N)[C@H]1O [Example 10, all-cis-1,3,5-Triamino-2,4,6-cyclohexanetriol]
LD50 [2, 13]: 158 mg/kg | elimination of iron by excretion in the faeces [3]: 0.2 | elimination of iron by excretion in the urine [3]: 0.1 | toxicity [7]: relatively low toxicity

O=P(O)(O)CN[C@H]1[C@@H](O)[C@@H](NCP(=O)(O)O)[C@@H](O)[C@@H](NCP(=O)(O)O)[C@H]1O [Example 11, all-cis-1,3,5-Tris-(ammoniomethanephosphonic acid)-2,4,6-cyclohexanetriol trichloride]
pKa (pK-values (approximate); pK1, lowest value of the list): ~5.2 | pKa (pK-values (approximate); [8]): ~6 | pKa (pK-values (approximate); [9]): ~6.5 | pKa (pK-values (approximate); [10]): ~7 | pKa (pK-values (approximate); [11]): ~8 | pKa (pK-values (approximate); [12]): ~9.5

N#CCN[C@H]1[C@@H](O)[C@@H](NCC#N)[C@@H](O)[C@@H](NCC#N)[C@H]1O [all-cis-1,3,5-tris-(aminoacetic acid nitrile)-2,4,6-cyclohexanetriol]
pKa (pK-values (approximate); highest pK of nitrile intermediate): ~6.5 | pKa (pK-values (approximate); next lowest pK of nitrile intermediate): ~3

C[N+](C)(C)[C@H]1[C@@H](O)[C@@H]([N+](C)(C)C)[C@@H](O)[C@@H]([N+](C)(C)C)[C@H]1O [Example 19c]
LD50 [2, 13]: 235 mg/kg | elimination of iron by excretion in the faeces [3]: 0.5 | elimination of iron by excretion in the urine [3]: 0.2

CN(C)[C@H]1[C@@H](O)[C@@H](N(C)C)[C@@H](O)[C@@H](N(C)C)[C@H]1O [Example 12b, all-cis-1,3,5-Tris-(dimethylammonio)-2,4,6-cyclohexanetriol sulphate]
solubility in boiling methanol (Solubility; boiling methanol): virtually insoluble
